The nature of data set [1]: Stability in the rat liver microsome. The settings on record: 0.5 mg/mL microsomes, NADPH, 15 minutes at 37° C.
Method: Evaluation of the Stability in the Rat and Human Liver Microsome
A 0.25 mmol/L solution was prepared by diluting the test compound (10 mmol/L DMSO solution, 5 μL) with an aqueous 50% acetonitrile solution (195 μL).
20 μL was collected immediately after the start and the reaction was stopped by the addition to 180 μL of acetonitrile that contained an internal standard (warfarin). 20 μL of this solution was stirred with 180 μL of an aqueous 50% acetonitrile solution on a filter plate for protein depletion followed by suction filtration, and the filtrate was used as the standard sample.
The previously indicated reaction solution was incubated for 15 minutes at 37° C., and 20 μL was then added to 180 μL cold acetonitrile (contained the internal standard warfarin) to stop the reaction. 20 μL of this was stirred with 180 μL of an aqueous 50% acetonitrile solution on a filter plate for protein depletion followed by suction filtration, and the filtrate was used as the standard sample.
The target in a further data set is Btk (Homo sapiens (Human), UniProt Q06187). As to the kind of experiment: Btk enzyme inhibitory activity (Z'-LYTE Kinase Assay Kit-Tyr1 peptide). The settings on record: Tyr-1 peptide 4 μM, Btk 5 nM, ATP 36 μM, 1 hour at 30° C. The format is biochemical. The method, then:
The Btk enzyme inhibitory activity was measured, based on the protocol provided by the manufacturer, using Btk (Invitrogen Corporation) and the Z′-LYTE® Kinase Assay Kit-Tyr1 peptide (Invitrogen Corporation), which contained the following reagents: Tyr-1 peptide, Thy-1 phosphopeptide, 5× kinase buffer, ATP, development reagent B, development buffer, and stop reagent.
5 μL/well of a solution of the test compound diluted with dimethyl sulfoxide (DMSO), or DMSO, and 10 μL/well of the substrate/enzyme mixture solution were dispensed to a 96-well assay plate and a reaction was carried out for 20 minutes at 30° C. […] The enzymatic reaction was then stopped by adding 10 μL of the stop solution.
The percent inhibition (%) by the test compound was calculated using the following equation. percent inhibition (%) of phosphorylation=1−{(AC−AX)/(AC−AB)}×100 [E1]

The next data set has as its target LynA (Homo sapiens (Human), UniProt P07948). As to the kind of experiment: LynA inhibitory activity, selectivity for Btk (Z'-LYTE kinase assay). The settings on record: ratio of the IC50 values of the individual kinases. The format is biochemical. The protocol:
(§1) The inhibitory activity for other kinases (for example, Lck, Fyn, and LynA (all from Invitrogen Corporation) was measured in the same manner as described above using the particular kinase in place of the Btk.

The next data set has as its system Human liver cells. As to the kind of experiment: Cytotoxicity in cultured human hepatoma cells (ATP concentration, Celltiter Glo). Particulars: 50% decline in ATP concentration, exposure for 24 hours, read-out: Toxicity for human liver cells (IC50 (μM)). The format is cell-based. The protocol: Measurement of the Cytotoxicity and Ability to Reduce the Mitochondrial Membrane Potential in Cultured Human Hepatoma Cells
Human liver cells were seeded into a collagen-coated 96-well plate at a cell density of 30,000 cells/well and incubation was carried out overnight in an incubator at 37° C. in 5% CO2-95% air. The cultured cells were stained for 1 hour with 5,5′,6,6′-tetrahydro-1,1′,3,3′-tetramethyl-benzamidazolocarbocyanine iodide (JC-1) followed by treatment with the test compound. The test compound was dissolved in DMSO and then diluted with the liquid culture medium Hepatocyte Culture Medium (HCM) and added to the cells. The test compound treatment concentrations were 0, 6.25, 12.5, 25, 50, 100, 200, and 400 μmol/L. After exposure to the test compound for 24 hours, measurement was performed with a SpectraMax plate reader (Molecular Devices, LLC) at an excitation wavelength of 485 nm and a fluorescence wavelength of 538 nm and an excitation wavelength of 544 nm and a fluorescence wavelength of 590 nm. The membrane potential was determined by the ratio between the 544 nm/590 nm measurement value and the 485 nm/538 nm measurement value. After this, the ATP concentration in the cells was measured using a Celltiter Glo luminescent assay kit (Promega Corporation) in order to evaluate the cell toxicity of the test compound. The cells were lysed by the assay buffer provided with the measurement kit and the concentration of the ATP released from the cells was measured using the luciferin-luciferase enzyme activity as the index. The emission was measured using a SpectraMax plate reader. […] The ability to lower the mitochondrial membrane potential of the test compounds and the cytotoxicity of the test compounds are given in Table 3 below.
For orientation: In ATP-based viability assays light output follows the ATP content of the culture.

The next data set addresses Lck (Homo sapiens (Human), UniProt P06239). Nature of the data set: Lck inhibitory activity, selectivity for Btk (Z'-LYTE kinase assay). The data set is classed as biochemical. The settings on record: ratio of the IC50 values of the individual kinases. The method, then:
as §1

For another data set, the target named is Fyn (Homo sapiens (Human), UniProt P06241). Nature of the data set: Fyn inhibitory activity, selectivity for Btk (Z'-LYTE kinase assay). The format is biochemical. Particulars: ratio of the IC50 values of the individual kinases. The protocol:
as §1

For a further data set, the target named is Human CYP2C19 (Homo sapiens (Human), UniProt P33261). As to the kind of experiment: Inhibitory action on human CYP2C19. The data set is classed as in vitro ADME. The method, then: Measurement of the Inhibitory Activity on Drug-Metabolizing Enzymes (Inhibitory Action on Human CYP2C8 and Human CYP2C19)
Human CYP2C19, sequence (P33261 whole entry): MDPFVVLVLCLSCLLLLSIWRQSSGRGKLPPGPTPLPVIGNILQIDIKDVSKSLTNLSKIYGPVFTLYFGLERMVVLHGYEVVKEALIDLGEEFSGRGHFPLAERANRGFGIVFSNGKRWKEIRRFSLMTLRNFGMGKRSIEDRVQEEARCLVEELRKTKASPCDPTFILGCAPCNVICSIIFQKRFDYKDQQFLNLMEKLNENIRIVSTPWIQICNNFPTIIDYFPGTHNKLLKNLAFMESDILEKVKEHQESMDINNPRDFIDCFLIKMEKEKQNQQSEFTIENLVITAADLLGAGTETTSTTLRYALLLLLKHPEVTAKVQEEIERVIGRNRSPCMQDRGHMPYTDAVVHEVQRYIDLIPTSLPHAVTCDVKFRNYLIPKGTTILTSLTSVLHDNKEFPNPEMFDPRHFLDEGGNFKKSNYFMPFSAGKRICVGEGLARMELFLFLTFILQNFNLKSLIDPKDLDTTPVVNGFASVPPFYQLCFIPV
The reaction was carried out in a 96-well plate. The positive control substances (CYP2C8: ketoconazole, CYP2C19: tranylcypromine) were adjusted (CYP2C8: 0.6 and 6 mmol/L, CYP2C19: 0.9 and 9 mmol/L) with DMSO to concentrations that were 300 times the final concentration, and solutions were prepared (CYP2C8: 8 and 80 μmol/L, CYP2C19: 12 and 120 μmol/L) by 75× dilution with purified water that contained 2.7% acetonitrile. The test compounds were adjusted to […] with DMSO and were adjusted to 4 and 40 μmol/L by 75× dilution with purified water that contained 2.7% acetonitrile. A reaction mixture was then prepared (the numerical values are final concentrations) by the addition of potassium phosphate buffer (pH 7.4), magnesium chloride ([…]), substrate (CYP2C8: dibenzylfluorescein 1 μmol/L, CYP2C19: 3-cyano-7-ethoxycoumarin 25 μmol/L), and E. coli-expressed liver microsome CYP2C8 (Cypex, 10 pmol/L) and CYP2C19 (Cypex, 3 pmol/L). 100 μL of this reaction mixture and 50 μL of the test compound prepared as described above and the positive control solution prepared as described above were dispensed into each well and pre-incubation was carried out at 10 minutes for 37° C. The reaction was started by the addition of 50 μL NADPH solution (final concentration=1 mmol/L) and incubation was carried out for 30 minutes at 37° C. The fluorescence intensity was measured (CYP2C8: excitation wavelength=485 nm, fluorescence wavelength=538 nm; CYP2C19: excitation wavelength=409 nm, fluorescence wavelength=460 nm) immediately after the addition of the NADPH and after incubation for 30 minutes.

These results are taken from patent US9879013B2, “Purinone derivative” (ONO PHARMACEUTICAL CO., LTD., priority 2010, dated 2018).

Structures are written as SMILES. Bounds are passed on as bounds.

For orientation: IC50 means the concentration at which inhibition is half-maximal.

Fyn, sequence (P06241 whole entry): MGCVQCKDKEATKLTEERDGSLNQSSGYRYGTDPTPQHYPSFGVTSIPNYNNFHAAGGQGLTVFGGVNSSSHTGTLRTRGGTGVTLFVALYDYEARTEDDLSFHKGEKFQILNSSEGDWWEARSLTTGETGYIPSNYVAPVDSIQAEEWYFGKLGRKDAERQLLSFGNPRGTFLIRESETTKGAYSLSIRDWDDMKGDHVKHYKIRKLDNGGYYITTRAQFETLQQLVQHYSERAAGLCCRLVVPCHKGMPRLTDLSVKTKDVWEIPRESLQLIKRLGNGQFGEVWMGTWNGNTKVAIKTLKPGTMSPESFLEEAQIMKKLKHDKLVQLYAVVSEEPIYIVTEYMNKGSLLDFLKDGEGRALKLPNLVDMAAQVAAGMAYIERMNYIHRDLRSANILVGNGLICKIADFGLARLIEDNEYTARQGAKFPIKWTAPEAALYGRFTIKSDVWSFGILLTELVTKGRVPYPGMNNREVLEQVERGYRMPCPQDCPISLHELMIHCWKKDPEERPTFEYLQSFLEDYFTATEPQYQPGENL
LynA, sequence (P07948 whole entry): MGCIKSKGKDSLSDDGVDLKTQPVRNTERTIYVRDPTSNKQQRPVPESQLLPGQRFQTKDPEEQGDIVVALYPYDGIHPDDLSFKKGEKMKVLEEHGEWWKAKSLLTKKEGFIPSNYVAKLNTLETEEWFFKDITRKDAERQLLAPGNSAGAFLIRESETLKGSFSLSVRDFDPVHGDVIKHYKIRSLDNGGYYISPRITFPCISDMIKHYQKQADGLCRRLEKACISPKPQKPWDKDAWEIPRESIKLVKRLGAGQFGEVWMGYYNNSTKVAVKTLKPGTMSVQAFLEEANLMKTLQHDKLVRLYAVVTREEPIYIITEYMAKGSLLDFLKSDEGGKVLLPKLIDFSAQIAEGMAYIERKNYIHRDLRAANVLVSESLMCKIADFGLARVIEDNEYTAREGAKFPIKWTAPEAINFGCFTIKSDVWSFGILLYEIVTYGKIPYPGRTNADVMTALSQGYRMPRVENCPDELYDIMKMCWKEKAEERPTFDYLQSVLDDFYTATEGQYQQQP
Btk, sequence (Q06187 whole entry): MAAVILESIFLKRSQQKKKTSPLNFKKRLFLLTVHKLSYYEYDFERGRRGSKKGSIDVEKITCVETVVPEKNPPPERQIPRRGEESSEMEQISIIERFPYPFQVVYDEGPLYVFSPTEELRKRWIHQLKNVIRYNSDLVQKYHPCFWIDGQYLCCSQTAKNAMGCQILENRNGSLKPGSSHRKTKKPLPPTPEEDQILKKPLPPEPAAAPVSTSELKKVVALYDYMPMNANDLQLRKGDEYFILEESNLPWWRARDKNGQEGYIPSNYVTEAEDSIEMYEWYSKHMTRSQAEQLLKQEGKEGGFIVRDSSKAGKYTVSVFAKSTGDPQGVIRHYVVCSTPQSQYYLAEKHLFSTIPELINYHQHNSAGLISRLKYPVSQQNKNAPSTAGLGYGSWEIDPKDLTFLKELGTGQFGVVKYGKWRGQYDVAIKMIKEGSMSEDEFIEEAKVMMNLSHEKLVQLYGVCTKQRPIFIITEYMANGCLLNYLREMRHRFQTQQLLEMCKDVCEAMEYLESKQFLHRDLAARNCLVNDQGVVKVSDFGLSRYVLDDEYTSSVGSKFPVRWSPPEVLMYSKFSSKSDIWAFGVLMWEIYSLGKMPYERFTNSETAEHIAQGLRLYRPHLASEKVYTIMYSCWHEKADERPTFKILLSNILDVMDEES
Lck, sequence (P06239 whole entry): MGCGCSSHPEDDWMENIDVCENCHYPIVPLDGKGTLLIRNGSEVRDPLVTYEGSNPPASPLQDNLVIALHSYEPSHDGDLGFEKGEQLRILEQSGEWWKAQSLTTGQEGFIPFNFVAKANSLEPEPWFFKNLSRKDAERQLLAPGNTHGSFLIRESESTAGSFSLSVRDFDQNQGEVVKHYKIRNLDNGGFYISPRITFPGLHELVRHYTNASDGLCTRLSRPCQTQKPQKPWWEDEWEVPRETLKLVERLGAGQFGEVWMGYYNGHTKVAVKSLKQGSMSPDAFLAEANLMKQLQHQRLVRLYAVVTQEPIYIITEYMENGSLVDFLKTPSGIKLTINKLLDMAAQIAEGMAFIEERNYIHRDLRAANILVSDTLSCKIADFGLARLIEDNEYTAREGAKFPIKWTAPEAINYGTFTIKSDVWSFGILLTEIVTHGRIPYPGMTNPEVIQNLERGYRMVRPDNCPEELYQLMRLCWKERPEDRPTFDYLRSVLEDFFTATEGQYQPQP

Take `C=CC(=O)N1CC(n2c(=O)n(-c3ccc(Oc4ccccc4)cc3)c3c(N)ncnc32)C1` [Example 8, 9-(1-acryloyl-3-azetidinyl)-6-amino-7-(4-phenoxyphenyl)-7,9-dihydro-8H-purin-8-one]: in data set [1], the “Residual ratio (%) in the rat liver microsome” value is 100%. Further, the results for the IC50 on Btk, in the data set with Human liver cells and on Human CYP2C19 were 0.004 µM, 290 µM and over 10 µM, respectively. Besides, the “LynA[IC50]/Btk[IC50]” value at LynA is given as 459. The “Lck[IC50]/Btk[IC50]” value on Lck is recorded as 80. The “Fyn[IC50]/Btk[IC50]” value on Fyn is listed as 453.
